Each compound was assayed against T1, full length AKT E17K (Homo sapiens, UniProt P31749, E17K) (assay: NanoBRET Target Engagement (TE) Assay). Settings: competitive displacement of tracer in cells, read-out: AKT1 E17K IC50.
T1 construct: host or cells: HEK-293 (ATCC CRL-1573)
Format: cell-based
In short: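 Compound and tracer incubated 2 h before luminescence at donor 450 nm and acceptor 600 nm, with extracellular signal inhibited. EC50 by sigmoidal variable-slope regression.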

T1 sequence (P31749 whole entry E17K): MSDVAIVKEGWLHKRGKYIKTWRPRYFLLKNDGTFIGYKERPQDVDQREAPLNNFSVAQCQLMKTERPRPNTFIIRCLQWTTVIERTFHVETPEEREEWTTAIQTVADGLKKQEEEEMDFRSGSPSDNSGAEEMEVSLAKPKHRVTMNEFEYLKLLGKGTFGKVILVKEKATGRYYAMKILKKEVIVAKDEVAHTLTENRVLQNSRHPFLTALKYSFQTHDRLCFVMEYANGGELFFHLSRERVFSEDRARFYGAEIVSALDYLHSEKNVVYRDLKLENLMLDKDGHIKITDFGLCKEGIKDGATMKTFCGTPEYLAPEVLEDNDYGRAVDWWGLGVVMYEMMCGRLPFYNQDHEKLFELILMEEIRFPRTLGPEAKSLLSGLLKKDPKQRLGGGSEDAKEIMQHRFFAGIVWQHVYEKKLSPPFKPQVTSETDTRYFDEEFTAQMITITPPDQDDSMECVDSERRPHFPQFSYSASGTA

Question: With `N#Cc1nccc(N2C[C@@H]3CN(Cc4ccc(-n5c(-c6cccnc6N)nc6ccc(-c7ccc(F)cc7)nc65)cc4)C[C@H]3C2)n1` [Example 450, 4-((3aS,6aS)-5-(4-(2-(2-Aminopyridin-3-yl)-5-(4-fluorophenyl)-3H-imidazo[4,5-b]pyridin-3-yl)benzyl)hexahydropyrrolo[3,4-c]pyrrol-2(1H)-yl)pyrimidine-2-carbonitrile] as the compound, how does the IC50 read?
Answer: The IC50 was 15 to 60 nM.

Question: With `N#Cc1nccc(N2C[C@@H]3CN(Cc4ccc(-n5c(-c6cccnc6N)nc6ccc(-c7ccccc7)nc65)cc4)C[C@H]3C2)n1` [Example 367, 4-((3aS,6aS)-5-(4-(2-(2-aminopyridin-3-yl)-5-phenyl-3H-imidazo[4,5-b]pyridin-3-yl)benzyl)hexahydropyrrolo[3,4-c]pyrrol-2(1H)-yl)pyrimidine-2-carbonitrile] as the compound, how does the IC50 read?
Answer: Its IC50 is less than 15 nM.

Question: With `N#Cc1nccc(NC2CCN(Cc3ccc(-n4c(-c5cccnc5N)nc5ccc(-c6cccc(N7CCCC7=O)c6)nc54)cc3)CC2)n1` [Example 468, 4-((1-(4-(2-(2-Aminopyridin-3-yl)-5-(3-(2-oxopyrrolidin-1-yl)phenyl)-3H-imidazo[4,5-b]pyridin-3-yl)benzyl)piperidin-4-yl)amino)pyrimidine-2-carbonitrile] as the compound, how does the IC50 read?
Answer: The IC50 was less than 15 nM.

Question: `CC(C)OC(=O)c1ccc2nc(-c3cccnc3N)n(-c3ccc(CN4CCC(Nc5ccnc(C#N)n5)CC4)cc3)c2n1` [Example 531, Isopropyl 2-(2-aminopyridin-3-yl)-3-(4-((4-((2-cyanopyrimidin-4-yl)amino)piperidin-1-yl)methyl)phenyl)-3H-imidazo[4,5-b]pyridine-5-carboxylate] was tested. Which IC50 did it give?
Answer: The IC50 was less than 15 nM.

Question: `CN(c1ccnc(C#N)n1)C1CCN(Cc2ccc(-n3c(-c4cccnc4N)nc4cccnc43)cc2)CC1` [Example 390, 4-((1-(4-(2-(2-Aminopyridin-3-yl)-3H-imidazo[4,5-b]pyridin-3-yl)benzyl)piperidin-4-yl)(methyl)amino)pyrimidine-2-carbonitrile] was tested. Which IC50 did it give?
Answer: The IC50 was less than 15 nM.

Question: How did the IC50 turn out when `N#Cc1nccc(NC2CCN(Cc3ccc(-n4c(-c5cccnc5N)nc5ccc(-c6ccc(C(F)(F)F)cc6)nc54)cc3)CC2)n1` [Example 471, 4-((1-(4-(2-(2-Aminopyridin-3-yl)-5-(4-(trifluoromethyl)phenyl)-3H-imidazo[4,5-b]pyridin-3-yl)benzyl)piperidin-4-yl)amino)pyrimidine-2-carbonitrile] was run?
Answer: Its IC50 is 15 to 60 nM.

Question: Which IC50 does the source give for `N#Cc1nccc(NC2CCN(Cc3ccc(-n4c(-c5cccnc5N)nc5ccc(-c6ccc(OC7CC7)cn6)nc54)cc3)CC2)n1` [Example 585, 4-((1-(4-(2-(2-Aminopyridin-3-yl)-5-(5-cyclopropoxypyridin-2-yl)-3H-imidazo[4,5-b]pyridin-3-yl)benzyl)piperidin-4-yl)amino)pyrimidine-2-carbonitrile] here?
Answer: Its IC50 is less than 15 nM.

Question: Which IC50 does the source give for `COc1ccc(-c2ccc3nc(-c4cccnc4N)n(-c4ccc(CN5CCC(Nc6ccnc(C#N)n6)CC5)cc4)c3n2)cn1` [Example 516, 4-((1-(4-(2-(2-Aminopyridin-3-yl)-5-(6-methoxypyridin-3-yl)-3H-imidazo[4,5-b]pyridin-3-yl)benzyl)piperidin-4-yl)amino)pyrimidine-2-carbonitrile] here?
Answer: The IC50 was less than 15 nM.

Question: How did the IC50 turn out when `[2H]C([2H])([2H])Nc1ccc2nc(-c3cccnc3N)n(-c3ccc(CN4CCC(Nc5ccnc(C#N)n5)CC4)cc3)c2n1` [Example 459, 4-((1-(4-(2-(2-Aminopyridin-3-yl)-5-((methyl-d3)amino)-3H-imidazo[4,5-b]pyridin-3-yl)benzyl)piperidin-4-yl)amino)pyrimidine-2-carbonitrile] was run?
Answer: The IC50 was less than 15 nM.

Question: `N#Cc1ccc2nc(-c3cccnc3N)n(-c3ccc(CN4CCC(Nc5ccnc(C#N)n5)CC4)cc3)c2n1` [Example 406, 2-(2-Aminopyridin-3-yl)-3-(4-((4-((2-cyanopyrimidin-4-yl)amino)piperidin-1-yl)methyl)phenyl)-3H-imidazo[4,5-b]pyridine-5-carbonitrile] was tested. Which IC50 did it give?
Answer: Its IC50 is less than 15 nM.

Question: For `N#Cc1ncnc(N2C[C@H]3CN(Cc4ccc(-n5c(-c6cccnc6N)nc6ccc(-c7ccccc7)nc65)cc4)C[C@H]3C2)n1` [Example 340, 4-((3aR,6aS)-5-(4-(2-(2-Aminopyridin-3-yl)-5-phenyl-3H-imidazo[4,5-b]pyridin-3-yl)benzyl)hexahydropyrrolo[3,4-c]pyrrol-2(1H)-yl)-1,3,5-triazine-2-carbonitrile], which IC50 is on record?
Answer: The IC50 was less than 15 nM.

Question: Which IC50 does the source give for `N#Cc1nccc(N2C[C@H]3CN(Cc4ccc(-n5c(-c6cccnc6N)nc6ccc(-c7ccccc7)nc65)cc4)C[C@H]3C2)n1` [Example 339, 4-((3aR,6aS)-5-(4-(2-(2-aminopyridin-3-yl)-5-phenyl-3H-imidazo[4,5-b]pyridin-3-yl)benzyl)hexahydropyrrolo[3,4-c]pyrrol-2(1H)-yl)pyrimidine-2-carbonitrile] here?
Answer: Its IC50 is 15 to 60 nM.

Question: With `CCc1ccc2nc(-c3cccnc3N)n(-c3ccc(CN4CCC(Nc5ccnc(C#N)n5)CC4)cc3)c2n1` [Example 397, 4-((1-(4-(2-(2-Aminopyridin-3-yl)-5-ethyl-3H-imidazo[4,5-b]pyridin-3-yl)benzyl)piperidin-4-yl)amino)pyrimidine-2-carbonitrile] as the compound, how does the IC50 read?
Answer: The IC50 was less than 15 nM.

Same assay, conditions: competitive tracer displacement in living cells, read-out: AKT1 E17K IC50

Question: For `C[C@H]1CN(Cc2ccc(-n3c(-c4cccnc4N)nc4ccc(-c5ccccc5)nc43)cc2)C[C@H](C)N1c1nccc(C#N)n1` [Example 193, 2-((2S,6S)-4-(4-(2-(2-Aminopyridin-3-yl)-5-phenyl-3H-imidazo[4,5-b]pyridin-3-yl)benzyl)-2,6-dimethylpiperazin-1-yl)pyrimidine-4-carbonitrile], which IC50 is on record?
Answer: Its IC50 is 60 to 600 nM.

Question: `C[C@@H]1CN(Cc2ccc(-n3c(-c4cccnc4N)nc4ccc(-c5ccccc5)nc43)cc2)C[C@H](C)N1c1ncnc(C#N)n1` [Example 277, 4-((2R,6S)-4-(4-(2-(2-aminopyridin-3-yl)-5-phenyl-3H-imidazo[4,5-b]pyridin-3-yl)benzyl)-2,6-dimethylpiperazin-1-yl)-1,3,5-triazine-2-carbonitrile] was tested. Which IC50 did it give?
Answer: Its IC50 is 15 to 60 nM.

Question: `N#Cc1cc(N2CC3CCC2CN3Cc2ccc(-n3c(-c4cccnc4N)nc4ccc(-c5ccccc5)nc43)cc2)ncn1` (stereo not drawn) [Example 221, 6-(5-(4-(2-(2-Aminopyridin-3-yl)-5-phenyl-3H-imidazo[4,5-b]pyridin-3-yl)benzyl)-2,5-diazabicyclo[2.2.2]octan-2-yl)pyrimidine-4-carbonitrile] was tested. Which IC50 did it give?
Answer: Its IC50 is 60 to 600 nM.

Question: For `N#Cc1cc(N2CCN(Cc3ccc(-n4c(-c5cccnc5N)nc5ccc(-c6ccccc6)nc54)cc3)CC23CC3)ncn1` [Example 200, 6-(7-(4-(2-(2-Aminopyridin-3-yl)-5-phenyl-3H-imidazo[4,5-b]pyridin-3-yl)benzyl)-4,7-diazaspiro[2.5]octan-4-yl)pyrimidine-4-carbonitrile], which IC50 is on record?
Answer: Its IC50 is 15 to 60 nM.

Question: With `N#Cc1cc(C(=O)N2CCN(Cc3ccc(-n4c(-c5cccnc5N)nc5cccnc54)cc3)CC2)ccn1` [Example 109, 4-(4-(4-(2-(2-Aminopyridin-3-yl)-3H-imidazo[4,5-b]pyridin-3-yl)benzyl)piperazine-1-carbonyl)picolinonitrile] as the compound, how does the IC50 read?
Answer: Its IC50 is 600 to 10000 nM.

Question: How did the IC50 turn out when `[2H]C([2H])([2H])N(c1ncnc(C#N)n1)C1CCN(Cc2ccc(-n3c(-c4cccnc4N)nc4ccc(-c5ccccc5)nc43)cc2)CC1` [Example 233, 4-((1-(4-(2-(2-Aminopyridin-3-yl)-5-phenyl-3H-imidazo[4,5-b]pyridin-3-yl)benzyl)piperidin-4-yl)(methyl-d3)amino)-1,3,5-triazine-2-carbonitrile] was run?
Answer: The IC50 was 15 to 60 nM.

Question: For `N#Cc1cncc(C(=O)NC2CCN(Cc3ccc(-n4c(-c5cccnc5N)nc5cccnc54)cc3)CC2)c1` [Example 26, N-(1-(4-(2-(2-aminopyridin-3-yl)-3H-imidazo[4,5-b]pyridin-3-yl)benzyl)piperidin-4-yl)-5-cyanonicotinamide], which IC50 is on record?
Answer: The IC50 was 600 to 10000 nM.

Question: Which IC50 does the source give for `N#Cc1ccnc(N2CCCN(Cc3ccc(-n4c(-c5cccnc5N)nc5ccc(-c6ccccc6)nc54)cc3)CC2)n1` [Example 228, 2-(4-(4-(2-(2-Aminopyridin-3-yl)-5-phenyl-3H-imidazo[4,5-b]pyridin-3-yl)benzyl)-1,4-diazepan-1-yl)pyrimidine-4-carbonitrile] here?
Answer: The IC50 was 15 to 60 nM.

Question: For `N#Cc1ncnc(N2CCCC3(CCN(Cc4ccc(-n5c(-c6cccnc6N)nc6ccc(-c7ccccc7)nc65)cc4)CC3)C2)n1` [Example 254, 4-(9-(4-(2-(2-Aminopyridin-3-yl)-5-phenyl-3H-imidazo[4,5-b]pyridin-3-yl)benzyl)-2,9-diazaspiro[5.5]undecan-2-yl)-1,3,5-triazine-2-carbonitrile], which IC50 is on record?
Answer: The IC50 was less than 15 nM.

Question: `N#Cc1nc2c(C(=O)NCc3ccc(-n4c(-c5cccnc5N)nc5cccnc54)cc3)cc(F)cc2s1` [Example 174, N-(4-(2-(2-aminopyridin-3-yl)-3H-imidazo[4,5-b]pyridin-3-yl)benzyl)-2-cyano-6-fluorobenzo[d]thiazole-4-carboxamide] was tested. Which IC50 did it give?
Answer: Its IC50 is 15 to 60 nM.

Question: Which IC50 does the source give for `N#Cc1nccc(N2CCN(Cc3ccc(-n4c(-c5cccnc5N)nc5ccc(-c6cccc(=O)[nH]6)nc54)cc3)CC2)n1` [Example 238, 4-(4-(4-(2-(2-Aminopyridin-3-yl)-5-(6-oxo-1,6-dihydropyridin-2-yl)-3H-imidazo[4,5-b]pyridin-3-yl)benzyl)piperazin-1-yl)pyrimidine-2-carbonitrile] here?
Answer: Its IC50 is 15 to 60 nM.

Question: How did the IC50 turn out when `N#Cc1ncccc1C(=O)NC1CCN(Cc2ccc(-n3c(-c4cccnc4N)nc4ccc(-c5ccccc5)nc43)cc2)CC1` [Example 58, N-(1-(4-(2-(2-Aminopyridin-3-yl)-5-phenyl-3H-imidazo[4,5-h]pyridin-3-yl)benzyl)piperidin-4-yl)-2-cyanonicotinamide] was run?
Answer: Its IC50 is less than 15 nM.

Question: With `N#Cc1nc2cc(F)cc(C(=O)NC3CCN(Cc4ccc(-n5c(-c6cccnc6N)nc6cccnc65)cc4)CC3)c2s1` [Example 35, N-(1-(4-(2-(2-Aminopyridin-3-yl)-3H-imidazo[4,5-b]pyridin-3-yl)benzyl)piperidin-4-yl)-2-cyano-5-fluorobenzo[d]thiazole-7-carboxamide] as the compound, how does the IC50 read?
Answer: Its IC50 is 60 to 600 nM.

Question: `N#Cc1cccc(OC2CCN(Cc3ccc(-n4c(-c5cccnc5N)nc5cccnc54)cc3)CC2)n1` [Example 4, 6-((1-(4-(2-(2-Aminopyridin-3-yl)-3H-imidazo[4,5-b]pyridin-3-yl)benzyl)piperidin-4-yl)oxy)picolinonitrile] was tested. Which IC50 did it give?
Answer: The IC50 was 600 to 10000 nM.
